Source: patent US20100099674A1 (priority 2007, published 2010)

How the values were obtained:
[1] = test system: Yersinia strain pIB102EL (YopE gene transcriptionally fused to luxAB); type: cell-based, Y. pseudotuberculosis
[2] = test system: YopH secretion by Yersinia-strain pIB102; type: cell-based, Y. pseudotuberculosis; conditions: reduction of assay read-out (pNPP dephosphorylation, 405 nm) at 50 or 20 μM; Ca2+ depleted medium, 37° C.
[3] = test system: J774A cells infected with Y. pseudotuberculosis YPIII (pIB102); type: cell-based; conditions: survival of the infected J774A cells at 20 or 10 μM; MOI 10, 16 h of infection
[4] = test system: Enterotoxic Escherichia coli (ETEC); type: cell-based

| SMILES | Lux Assay [1] | YopH Assay [2] | Ex vivo Y. pseudotb. [3] | Ex vivo ETEC (Neg Control) [4] |
| --- | --- | --- | --- | --- |
| Oc1c(CN2CCN(c3ccccn3)CC2)cc(Cl)c2cccnc12 [Substance 6] | + (key: + = <50% reduction of assay read-out at 50 μM; ++ = <50% reduction of assay read-out at 20 μM) | + (+ = <50% reduction of assay read-out at 50 μM) | + (+ = >70% survival of the infected cells at 20 μM) | + (key: + = >70% survival of the infected cells at 50 μM; ++ = >70% survival of the infected cells at 20 μM) |
| Oc1c(CN2CCN(c3ccc(F)cc3)CC2)cc(Br)c2cccnc12 [Substance 7] | + (key: + = <50% reduction of assay read-out at 50 μM; ++ = <50% reduction of assay read-out at 20 μM) | + (+ = <50% reduction of assay read-out at 50 μM) | ++ (++ = >70% survival of the infected cells at 10 μM) | ++ (key: + = >70% survival of the infected cells at 50 μM; ++ = >70% survival of the infected cells at 20 μM) |
| O=[N+]([O-])c1cc(CN2CCN(c3ccccc3)CC2)c(O)c2ncccc12 [Substance 1] | ++ (key: + = <50% reduction of assay read-out at 50 μM; ++ = <50% reduction of assay read-out at 20 μM) | ++ (++ = <50% reduction of assay read-out at 20 μM) | ++ (++ = >70% survival of the infected cells at 10 μM) | – |
| COc1ccccc1N1CCN(Cc2cc([N+](=O)[O-])c3cccnc3c2O)CC1 [Substance 3] | ++ (key: + = <50% reduction of assay read-out at 50 μM; ++ = <50% reduction of assay read-out at 20 μM) | + (+ = <50% reduction of assay read-out at 50 μM) | + (+ = >70% survival of the infected cells at 20 μM) | – |
| CN(Cc1cc([N+](=O)[O-])c2cccnc2c1O)C1CCCCC1 [Substance 2] | + (key: + = <50% reduction of assay read-out at 50 μM; ++ = <50% reduction of assay read-out at 20 μM) | – | – | – |
| CC1CN(Cc2cc([N+](=O)[O-])c3cccnc3c2O)CC(C)O1 (stereo not drawn) [Substance 4] | + (key: + = <50% reduction of assay read-out at 50 μM; ++ = <50% reduction of assay read-out at 20 μM) | + (+ = <50% reduction of assay read-out at 50 μM) | + (+ = >70% survival of the infected cells at 20 μM) | + (key: + = >70% survival of the infected cells at 50 μM; ++ = >70% survival of the infected cells at 20 μM) |
| Oc1c(CN2CCN(c3ccc(F)cc3)CC2)cc(Cl)c2cccnc12 [Substance 8] | + (key: + = <50% reduction of assay read-out at 50 μM; ++ = <50% reduction of assay read-out at 20 μM) | + (+ = <50% reduction of assay read-out at 50 μM) | ++ (++ = >70% survival of the infected cells at 10 μM) | + (key: + = >70% survival of the infected cells at 50 μM; ++ = >70% survival of the infected cells at 20 μM) |
| O=[N+]([O-])c1cc(CN2CCC(c3ccccc3)C2)c(O)c2ncccc12 (stereo not drawn) [Substance 5] | ++ (key: + = <50% reduction of assay read-out at 50 μM; ++ = <50% reduction of assay read-out at 20 μM) | ++ (++ = <50% reduction of assay read-out at 20 μM) | + (+ = >70% survival of the infected cells at 20 μM) | ++ (key: + = >70% survival of the infected cells at 50 μM; ++ = >70% survival of the infected cells at 20 μM) |
